Columns and labels:
[1] = biological target: T1, full-length, N-terminal, 6His-tagged human HSET (Homo sapiens, UniProt Q9BW19); experiment: In vitro enzymatic ATPase assay (ADP-Glo), MT-stimulated activity; type: biochemical
T1 construct: The protocol was optimized for use with full-length, N-terminal, 6His-tagged HSET and KSP; made in house; host or cells: Sf9 insect cells (baculovirus, pFastBac1)
T1 sequence (Q9BW19 1-673): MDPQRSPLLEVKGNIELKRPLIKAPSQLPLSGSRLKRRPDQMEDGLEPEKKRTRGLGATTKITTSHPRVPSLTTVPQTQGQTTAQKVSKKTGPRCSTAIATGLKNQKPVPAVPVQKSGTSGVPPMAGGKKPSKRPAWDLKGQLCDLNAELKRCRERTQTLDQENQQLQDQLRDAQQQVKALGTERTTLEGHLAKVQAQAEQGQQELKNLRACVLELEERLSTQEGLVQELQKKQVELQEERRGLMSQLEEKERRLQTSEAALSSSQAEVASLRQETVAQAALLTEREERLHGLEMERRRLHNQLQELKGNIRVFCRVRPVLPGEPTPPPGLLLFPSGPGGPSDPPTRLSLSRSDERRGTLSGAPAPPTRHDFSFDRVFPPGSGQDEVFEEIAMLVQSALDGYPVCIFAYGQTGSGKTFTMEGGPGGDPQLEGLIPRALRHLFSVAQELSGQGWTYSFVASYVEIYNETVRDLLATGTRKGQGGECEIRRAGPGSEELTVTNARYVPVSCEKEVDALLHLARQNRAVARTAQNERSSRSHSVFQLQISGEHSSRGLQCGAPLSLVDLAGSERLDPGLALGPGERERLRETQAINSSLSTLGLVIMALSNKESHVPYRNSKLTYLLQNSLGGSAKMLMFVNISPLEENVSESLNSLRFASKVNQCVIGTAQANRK
Description: The similarity decreases to 56% in the loop 5 binding cleft alone (residues 422–432; Figure 1A). Given the high degree of similarity between the proteins, and the potential for selective binding in the loop 5 cleft, the chemogenomics principle that similar proteins bind similar ligands was applied to HSET and KSP, and an in silico model for HSET binding was developed based on nearly 500 existing inhibitors of KSP in the ChEMBL database (see Experimental Procedures for details; [Klabunde, 2007]). Using the model parameters, we selected 200 compounds (in silico) from 20 million possibilities and further triaged them into 50 ligands that scored highest in the bioactivity model. We acquired and tested these ligands for in vitro activity using an ADP-Glo enzymatic assay (see Experimental Procedures for details; Figure 1B).
The protocol was optimized for use with full-length, N-terminal, 6His-tagged HSET and KSP, and measured the MT-stimulated activity of the proteins. Inhibition of the […] of HSET/KSP was observed spectrophotometrically by coupling the hydrolysis of ATP to oxidation of NADH via pyruvate kinase/lactate dehydrogenase reactions. The assay was initiated by […] an assay mixture containing the following components (final concentration): 6 nM protein, 0.07 mg/ml MTs (University Biologicals), […], 2 mM ATP, 2.7 mM MgCI, 1 mM phospho(enol)-pyruvate, 0.2 mM NADH, 50 μg/ml lactate dehydrogenase, 100 μg/ml pyruvate kinase, and various concentrations of inhibitor all in 50 mM Na PIPES (pH 6.8) at 37°C. The ADP-Glo detection assay (Promega) was performed as described in the manufacturer’s instructions. All compound additions were performed using a multidrop BioMek Nxp (Beckman Coulter). Plates were read using a Pherastar microplate reader (BMG Labtech).

[2] = system: HeLa cells; experiment: Immunofluorescence after time-lapse imaging, monopolar/bipolar spindles; type: cell-based, human; settings: 200 μM CW069, 100 μM monastrol, 40 mitotic cells
Description: Immediately after time-lapse imaging, cells were fixed and antibodies against α-tubulin, CDK5RAP2, and DAPI were employed to visualize MTs, centrosomes, and DNA, respectively. […] Control HeLa cells formed mainly bipolar spindles (92%), with two centrosomes positioned at the spindle poles on either side of the metaphase plate (Figure 6C; Table 1). Similar numbers of bipolar spindles were formed in CW069-treated cells (95%; Figure 6C; Table 1). Monastrol-treated cells almost exclusively formed monopolar spindles (97%) with one pole surrounded by DNA ([Luo et al., 2004]; Figure 6C; Table 1). Normal bipolar spindle formation was indeed restored for many cells (45%) when the HSET inhibitor CW069 was administered along with the KSP inhibitor monastrol (Figure 6C; Table 1).
Cells were plated at a seeding density of 1.2 × 10^4 cells per well in Ibidi eight-well chamber slides, incubated for 24 hr, and then treated with compound for 3 hr. Prewarmed 4% paraformaldehyde in PBS was then added to each well to fix the cells before washing with PBS. Permeabilization and blocking was performed by incubating the slides with 1% BSA, 0.3% Triton X-100, 5% goat serum in PBS (PBS/B/0.3%T+5%GS) for 1 hr while shaking them at room temperature (RT). The slides were incubated with primary antibody solutions (mouse monoclonal anti-α-Tubulin [catalog number T9026; Sigma-Aldrich] and rabbit anti-CDK5RAP2 [catalog number A300-554A; Bethyl Laboratories]) at 4°C for 16 hr. The slides were washed four times with PBS/B/0.3%T+5%GS and then incubated with secondary antibody solutions (anti-rabbit IgG Alexa Fluor 488 [catalog number A21206] and anti-mouse IgG Alexa Fluor 647 [catalog number A20990]; Invitrogen) and DAPI (catalog number D3571; Invitrogen) in deionized water (300 nM) in the dark at RT for 1 hr. After four washes with PBS/B/0.3%T+5%GS, the solution was replaced with PBS and the slides were stored at 4°C until imaging was performed. Images were gathered with the use of an ICys Research Imaging Cytometer (CompuCyte) or a tandem confocal microscope (Leica).

IC50 ([1]; concentrations up to 250 μM, mean ± SD): 75 ± 20 µM | selectivity for HSET over KSP ([1]; from IC50 values, HSET vs KSP): ~4 fold
Compound: O=C(O)c1cc(I)ccc1NC(=O)[C@H](Cc1ccccc1)NCc1ccccc1 [CW069]
Bipolar Spindle (%) [2]: 95% | Monopolar Spindle (%) [2]: 5%

— paper PMC3898838, “Design, Synthesis, and Biological Evaluation of an Allosteric Inhibitor of HSET that Targets Cancer Cells with Supernumerary Centrosomes” (Chemistry & Biology, 2013)
